Test results from patent US20160194274A1, “PHENANTHRENE DERIVATIVES FOR USE AS MEDICAMENTS” (VALENTIA BIOPHARMA, priority 2012, published 2016).
“Also recorded” adds a separate entry of the source.

Key:
MBNL1 = assay: Visualization and quantification of MBNL1 release in DM1 fibroblasts; format: cell-based, human; conditions: 100 μM
Experimental: FIG. 4. Visualization and quantification of MBNL1 release (A). Visualization of MBNL1 release for VLT002: Upper row: Untreated DM1 fibroblasts with MBNL1 localizing as ribonuclear foci (see dots in middle and right pictures) to the nucleus (DAPI, detected as gray spherical shadow in left and right pictures). […] (B) Quantification of the area (into the nucleus), where MBNL1 present (Photoshop software), reflects the MBNL1 release after VLT002, VLT025, VLT045, VLT049 and VLT040 treatment (100 μM).
At the same time human cells were recollected for foci counting. Some (150,000-300,000) were prepared for Muscleblind (MBNL1) detection (see FIG. 4). After PBS washes, cells were probed overnight, at 4° C. with anti-MBNL1 antibody (1:5000 dilutions, A2764 antibody) in 1×PBS. After washing cells with 1×PBS, cells were incubated with goat anti-rabbit Alexa 488 (1:500 dilution) for 2 h at RT. Cells were washed 2 times, for 10 min at room temperature with 1×PBS and then mounted onto glass slides using a hard-set mounting media that contains DAPI (Vectashield). Cells were imaged on a Leica microscope.

cTNT exon 5 splicing = assay: RT-PCR of cTNT splicing event in human myoblasts; format: cell-based
Experimental: FIG. 5. Recovering of DM1 aberrant cTNT splicing event. […] Upper section, right: Recovering was significant at 25 μM.
Additional assays involved: • Reverse Transcription-PCR (RT-PCR) to detect levels of normal/aberrant splicing events in specific genes. This approach was performed in human cells from patients (see FIG. 5) or from DM1 mouse (see FIG. 8 up) (HSA^LR, Mankodi A et al., Science, 289:1769-1773 (2000)) tissues (skeletal muscle), from which total RNA was extracted from ˜0.5-1.5×10^5 cells using the Zygem Tissue Plus kit. Serca 1, Cypher or cTNNT genes reverse transcription were performed and quantification of normal/aberrant spliced band forms was obtained (ImageJ software) after running PCR products in 2% agarose gels. As shown in FIGS. 5 and 8 compounds of the invention are able to recover disease phenotypes. • Drosophila Muscle Histology, where five-day old Drosophila thoraces were embedded in Epon for transversal, semi-thin sectioning. Muscle area was quantified (see FIG. 3) by binarizing images (equal dimensions) and quantifying pixels (%) within muscle tissue with ImageJ software. […] A minimum of 8 flies were analyzed in each case.

Serca1 exon 22 splicing = assay: Semi-quantitative RT-PCR of Serca1 splicing in HSA LR mouse skeletal muscle; format: in vivo; conditions: three days a/i
Experimental: (§1) FIG. 8. Recovering of disease phenotypes (molecular, histological and functional) in in vivo DM1 mice (HSA^LR). Upper section: VLT002 and VLT025 suppressed splicing defects in DM1 mouse skeletal muscles. VLT002 (10 μg) and VLT025 (100 μg) were intramuscular injected in the right tibialis anterior (TA) and left quadriceps (Q), respectively, of HSA^LR mice that expressed 300 CTG repeats. […] All graphs show the mean and SEM from VLT002 and VLT025-responsive animals. Middle section: Immunofluorescent detection of trans-membrane Clcn1 protein (cell outlines in gray) in quadriceps sections of no-DM1 mouse (control) and HSA^LR mice without treatment (10150.5 QD-DMSO treated) and after VLT025 treatment (10150.5 QI).
Additional assays involved: • Reverse Transcription-PCR (RT-PCR) to detect levels of normal/aberrant splicing events in specific genes. […] Serca 1, Cypher or cTNNT genes reverse transcription were performed and quantification of normal/aberrant spliced band forms was obtained (ImageJ software) after running PCR products in 2% agarose gels. […] Muscle area was quantified (see FIG. 3) by binarizing images (equal dimensions) and quantifying pixels (%) within muscle tissue with ImageJ software. […] A minimum of 8 flies were analyzed in each case.

CCUG FAM-RNA probe = assay: Gel retardation assay with FAM-CCUG probe (DM2); format: binding
Experimental: (§2) FIG. 9. VLT002 binding assessment in additional toxic repeats linked to disease through hairpin formation.
(§3) Fluorescence Electrophoretic Mobility Shift Assay to test RNA-compound binding. Briefly, an aliquot of carboxyfluorescein (FAM)-CUG10 RNA (DM1, HDL2, SCA8; see FIG. 6) was heated at 70° C. for 5 min and diluted to 300 nM. The binding reaction with compounds was then carried out as described in (Garcia-Lopez A et al. Proc. Natl. Acad. Sci. USA. 108(29):11866-71 (2011)). The reaction mix was loaded onto 8% polyacrylamide nondenaturing gels, and electrophoresis was conducted at 4° C. in TB 1× for approximately 30 min at 240V, followed by fluorescence visualization. Quantification of the free RNA band intensity was carried out using the ImageJ software. A non-linear regression analysis was used to calculate EC50, based on a total of three experimental replicates. Same approach was developed with (FAM)-CCUG8 (DM2), CAG10 (SCA3), CGG10 (FXTAS), GGGGCC5 (ALS/FSD), UGGAA6 (SCA31) probes (see FIG. 9).

CAG FAM-RNA probe = assay: Gel retardation assay with FAM-CAG probe (SCA3); format: binding
Experimental: as §2, §3

CGG FAM-RNA probe = assay: Gel retardation assay with FAM-CGG probe (FXTAS); format: binding
Experimental: as §2, §3

GGGGCC FAM-RNA probe = assay: Gel retardation assay with FAM-GGGGCC probe (FTD/ALS); format: binding
Experimental: as §2, §3

UGGAA FAM-RNA probe = assay: Gel retardation assay with FAM-UGGAA probe (SCA31); format: binding
Experimental: as §2, §3

FAM-CUU probe = assay: Gel retardation assay with FAM-CUU probe (negative control); format: binding
Clcn1 protein = assay: Immunofluorescent detection of Clcn1 protein in HSA LR mouse quadriceps; format: in vivo; conditions: 100 μg
Experimental: as §1
Also, an immunohistochemistry approach was used to measure ClC-1 protein levels (see FIG. 8 middle) in mouse tissues (skeletal muscle). Briefly, frozen sections of tibialis anterior & quadriceps muscle were prepared for routine immunostaining by using antibody against the ClC-1 protein (Alpha Diagnostic, San Antonio, Tex.). Primary antibody concentration used was 1:50 for ClC-1. Secondary antibody was goat anti-rabbit Alexa Fluor 488 and 546 (Invitrogen) at 1:400. Stacks of Z plane images were processed by using a blind point spread function. […]

Row | Compound | MBNL1 sequestration / MBNL1 release (nuclear area where MBNL1 present) (MBNL1) | formation of foci (MBNL1 ribonuclear foci) (MBNL1) | recovering of normal cTNT splicing (ex5 exclusion) (cTNT exon 5 splicing; DM1 myoblasts, 25 μM) | expression of housekeeping gene (GAPDH) (cTNT exon 5 splicing; human myoblasts) | levels of cTNT exon 5 exclusion in no DM1 cells (cTNT exon 5 splicing; no DM1 human myoblasts, dose-response) | splicing defects (exon 22) of Serca1 (Serca1 exon 22 splicing; 10 μg intramuscular, right tibialis anterior) | binding to CCUG (DM2) probe (CCUG FAM-RNA probe) | binding to CAG (SCA3) probe (CAG FAM-RNA probe) | binding to CGG (FXTAS) probe (CGG FAM-RNA probe) | binding to GGGGCC (FTD/ALS) probe (GGGGCC FAM-RNA probe) | binding to UGGAA (SCA31) probe (UGGAA FAM-RNA probe) | binding to FAM-CUU probe (FAM-CUU probe) | splicing defects (exon 22) of Serca1 (Serca1 exon 22 splicing; 100 μg intramuscular, left quadriceps) | Clcn1 fluorescent signal vs DMSO-treated contra-lateral limb (Clcn1 protein)
1 | CN(C)CCc1cc2c(c3c1ccc1ccccc13)OCO2 [VLT002, Stephenanthrine] | MBNL1 sequestration is relieved; also recorded: relieve MBNL1 sequestration | reduced formation of the foci; also recorded: effectively reduce the formation of foci | partial recovering | No expression changes | no changes | partially reversed splicing defects | caused retention of the complex in the well | caused retention of the complex in the well | caused retention of the complex in the well | caused retention of the complex in the well | caused retention of the complex in the well | did not bind |  | 
2 | C[N+](C)(C)CCc1cc2c(c3c1ccc1ccccc13)OCO2 [VLT025] | relieve MBNL1 sequestration | effectively reduce the formation of foci |  |  |  |  |  |  |  |  |  |  | partially reversed splicing defects | significantly stronger
